From patent publication US20110318271A1, “Arginase Inhibitors for the Treatment of Depression” (UNIVERSITY OF TARTU, priority 2008, published 2011)

System: Male C57BL/6/Bkl mice
Assay: Forced swimming test in mice
Type: in vivo
Procedure: Male C57BL/6/Bkl mice (Scanbur BK AB, Sweden) weighing 20-25 g were used. Mice were kept 10 per cage (21×37×15 cm) in an animal house at 20° C. in a 12 h light/dark cycle (light on at 7.00 a.m.). Tap water and food pellets were available ad libitum. The animals were kept for at least two weeks in the animal colony before entering experiments. The measurement of locomotor activity, and forced swimming test were carried out consecutively 45 and 55 min after treatment with study compounds, according to Volke V, Wegener G, Bourin […]. […] Behavioural Brain Research 2003; 140: 141-147. In a separate experiment arginase product L-ornithine or saline was injected 15 min prior to L-norvaline. The Forced Swimming test was performed as described by Porsolt et al Porsolt R D, Bertin A, Jalfre M. Behavioral despair in mice: a primary screening test for antidepressants. Arch Int Pharmacodyn Ther 1977; 229: 327-336. A glass cylinder with a diameter of 12 cm was filled with 8 cm water at 25° C. An animal was put into the water and its behaviour was videotaped during 6 min. An observer blind to treatment protocol counted the immobility time during the last 4 min of the 6 min test.

[1] = Example 2, separate experiment (FIG. 2), 500 mg/kg each, L-ornithine or saline injected 15 min prior to L-norvaline, saline 199 sec

Compound | immobility time (20 mg/kg i.p., 55 min after treatment, last 4 min of 6 min test, control 220 sec (FIG. 1)) [s] | immobility time (100 mg/kg i.p., 55 min after treatment, last 4 min of 6 min test, control 220 sec (FIG. 1)) [s] | immobility time (500 mg/kg i.p., 55 min after treatment, last 4 min of 6 min test, control 220 sec (FIG. 1)) [s] | immobility time [1] [s] | immobility time (400 mg/kg i.p., separate experiment, control 219 sec) [s] | effect on immobility time (lower doses 10-100 mg/kg i.p.)
CCC[C@H](N)C(=O)O [L-norvaline] | 146 | 107 | 96 | 127 | – | –
NCCC[C@H](N)C(=O)O [L-ornithine] | – | – | – | 214 | – | –
difluoromethylornithine [DFMO] | – | – | – | – | 191 | ineffective
